Laboratory results taken from patent US10723741B1, “DNA polymerase IIIC inhibitors and use thereof” (Acurx Pharmaceuticals, LLC, priority 2018, dated 2020).
Converted amounts (≈) assume the structure as drawn.

How the values were obtained:
Assay type in all cases: cell-based
[1] = system: Escherichia coli ATCC 25922; experiment: Broth microdilution MIC, E. coli ATCC 25922 (MHIIB w & w/o 4 mM EDTA); details: broth microdilution, 37° C., 20 hours; for MIC: Escherichia coli, ATCC25922, without EDTA, read-out: MIC E. coli ATCC 25922; for MIC E. coli ATCC 25922 + 4 mM EDTA: with 4 mM EDTA
From the text: (§1) Bacteria tested are Staphylococcus aureus NRS384 (a methicillin-resistant Staphylococcus aureus, MRSA), Staphylococcus aureus ATCC 29213 (a methicillin-sensitive Staphylococcus aureus, MSSA), Streptococcus pneumoniae ATCC 49619, Enterococcus faecalis ATCC 29212, Enterococcus faecium ATCC 700221 (a vancomycin-resistant enterococcus, VRE), Bacillus subtilis ATCC 6633, and Escherichia coli ATCC 25922.
(§2) Staphylococcus aureus NRS384 was obtained from NARSA (Network on Antimicrobial Resistance in Staphylococcus aureus, now the strain collection is in BEI resources). Other bacterial isolates were from ATCC (The American Type Culture Collection). Upon receiving the bacteria samples from aforementioned institutes, the bacteria were cultured according to the manuals provided by the suppliers. The bacteria were stored in 25% glycerol (final concentration) at −80° C.
(§3) On the day of testing, the compounds were dissolved in pure DMSO (Sigma 276855-1L) to […] as stock. In a v-bottom 96-well plate (Axygen-wipp02280), 20 μl DMSO was added into well 2 to well 12 by manual pipetting. Into well 1, 12.8 μL of compound DMSO stock (20 mg/ml) was added and mixed with 27.2 μl DMSO by pipetting. Two fold serial dilutions were performed by transferring and mixing 20 μl of solution from well 1 to well 2, then well 2 to well 3 and so forth until well 11. The well 12 was loaded with 20 μl DMSO without compounds. This was drug ‘mother plate’. From well 1 to well 12, the drug concentrations in the mother plate were […] in DMSO. A multi-pipette was used to perform the serial dilutions. The concentration may be adjusted according to the potency of the compounds. An Echo® Acoustic liquid handling system may be used to replace manual pipetting to make the daughter plates.
(§4) One day prior to the day of MIC testing, bacterial strains were streaked out from −80° C. glycerol stocks onto MHA plates and incubated at 37° C. for 20 hours. Streptococcus pneumoniae was streaked on blood agar and incubated at 37° C. in 5% CO2. The single colonies were picked by using an inoculation loop (Greiner-731175) and suspended into 5 ml sterile saline. The turbidity of the suspension was adjusted to 0.10 (Siemens MicroScan turbidity meter), equal to ˜1.0×10^8 cfu/ml. The bacterial suspension was diluted 200× in corresponding test medium (Table 1). This was used to inoculate daughter plates.
(§5) For preparing u-bottom 96-well ‘daughter plates’ (Costar 3788), an aliquot of 1 μl solution from mother plate was then replicating transferred into the daughter plate using a multi-pipette.
(§6) An aliquot of 99 μl of the bacterial suspension was inoculated into each well of the daughter plates using a multi-pipette. Each well contained ˜5.0×10^5 cfu/ml bacteria, 1% DMSO and serially diluted compounds at 64, 32, 16, 8, 4, 2, 1, 0.5, 0.25, 0.125, 0.0625 and 0 μg/ml from well 1 to well 12 respectively, in 100 μl corresponding test medium.
(§7) The plates were incubated in ambient atmosphere and in a 37° C. incubator for 20 hours.
(§8) Compounds of the present invention were tested for antibacterial activity against a variety of bacterial organism including Bacillus subtilis, Staphylococcus aureus, Enterococcus faecalis, Enterococcus faecium, Streptococcus pneumoniae and Escherichia coli. […] Compounds described in Examples 2, 44, 53, 56, 90, 134, 212, 213, 214, 218, 222, 304, 305, and 307 had MIC of ≤1 μg/ml against S. aureus NRS 384 (MRSA) (μg/ml) and E. faecium ATCC 700221 (VRE) (μg/ml).

[2] = system: Enterococcus faecalis ATCC 29212; experiment: Broth microdilution MIC, E. faecalis ATCC 29212; details: ATCC29212, broth microdilution, 37° C., 20 hours, read-out: MIC E. faecalis ATCC 29212
From the text: as §1, §2, §3, §4, §5, §6, §7, §8

[3] = system: Bacillus subtilis ATCC 6633; experiment: Broth microdilution MIC, B. subtilis ATCC 6633; details: ATCC6633, broth microdilution, 37° C., 20 hours, read-out: MIC B. subtilis ATCC 6633
From the text: as §1, §2, §3, §4, §5, §6, §7, §8

[4] = system: Streptococcus pneumoniae ATCC 49619; experiment: Broth microdilution MIC, S. pneumoniae ATCC 49619; details: ATCC49619, broth microdilution, 37° C., 20 hours, read-out: MIC S. pneumoniae ATCC 49619
From the text: as §1, §2, §3, §4, §5, §6, §7, §8

[5] = system: Enterococcus faecium ATCC 700221 (VRE); experiment: Broth microdilution MIC, E. faecium ATCC 700221 (VRE); parameters: MIC E. faecium ATCC 700221 (VRE): unit: ug/mL; details: broth microdilution, 37° C., 20 hours; for MIC: Enterococcus faecium, read-out: MIC E. faecium ATCC 700221 (VRE)
From the text: as §1, §2, §3, §4, §5, §6, §7, §8

[6] = system: Staphylococcus aureus ATCC 29213 (MSSA); experiment: Broth microdilution MIC, S. aureus ATCC 29213 (MSSA); details: broth microdilution, 37° C., 20 hours, read-out: MIC S. aureus ATCC 29213 (MSSA)
From the text: as §1, §2, §3, §4, §5, §6, §7, §8

[7] = system: Staphylococcus aureus NRS384 (MRSA); experiment: Broth microdilution MIC, S. aureus NRS384 (MRSA); parameters: MIC NRS 384 (MRSA): unit not given here; details: broth microdilution, 37° C., 20 hours; for MIC: Staphylococcus aureus, read-out: MIC NRS 384 (MRSA)
From the text: as §1, §2, §3, §4, §5, §6, §7, §8

Compound	MIC [1]	MIC E. coli ATCC 25922 + 4 mM EDTA [1]	MIC [2]	MIC [3]	MIC [4]	MIC [5]	MIC [6]	MIC [7]	MIC E. faecium ATCC 700221 (VRE) [5]	MIC NRS 384 (MRSA) [7]
COc1cc(CNc2nc3cnn(C)c3c(=O)[nH]2)ccc1Cl [Compound 34, 5-((4-Chloro-3-methoxybenzyl)amino)-1-methyl-1H-pyrazolo[4,3-d]pyrimidin-7(6H)-one]	> 64 µg/mL	>64 µg/mL	> 64 µg/mL	> 64 µg/mL	64 µg/mL (≈ 200 µM)	> 64 µg/mL	> 64 µg/mL	> 64 µg/mL	–	–
Cc1cc(CNc2nc3cnn(C)c3c(=O)[nH]2)ccc1Cl [Compound 35, 5-((4-Chloro-3-methylbenzyl)amino)-1-methyl-1H-pyrazolo[4,3-d]pyrimidin-7(6H)-one]	> 64 µg/mL	>64 µg/mL	8 µg/mL (≈ 26.3 µM)	2 µg/mL (≈ 6.58 µM)	4 µg/mL (≈ 13.2 µM)	4 µg/mL (≈ 13.2 µM)	4 µg/mL (≈ 13.2 µM)	2 µg/mL (≈ 6.58 µM)	–	–
Cn1ncc2nc(NCc3cc(Cl)c(Cl)cn3)[nH]c(=O)c21.O=C(O)C(F)(F)F [Compound 36, 5-(((4,5-Dichloropyridin-2-yl)methyl)amino)-1-methyl-1H-pyrazolo[4,3-d]pyrimidin-7(6H)-one-2,2,2-trifluoroacetate]	> 64 µg/mL	>64 µg/mL	> 64 µg/mL	> 64 µg/mL	> 64 µg/mL	> 64 µg/mL	> 64 µg/mL	> 64 µg/mL	–	–
Cn1ncc2nc(NCc3nc(Cl)c(Cl)[nH]3)[nH]c(=O)c21 [Compound 37, 5-(((4,5-Dichloro-1H-imidazol-2-yl)methyl)amino)-1-methyl-1H-pyrazolo[4,3-d]pyrimidin-7(6H)-one]	> 64 µg/mL	>64 µg/mL	> 64 µg/mL	> 64 µg/mL	> 64 µg/mL	> 64 µg/mL	> 64 µg/mL	> 64 µg/mL	–	–
CCc1[nH]c(CNc2nc3cnn(C)c3c(=O)[nH]2)nc1Cl.Cl [Compound 38, 5-(((4-Chloro-5-ethyl-1H-imidazol-2-yl)methyl)amino)-1-methyl-1H-pyrazolo[4,3-d]pyrimidin-7(6H)-one hydrochloride]	> 64 µg/mL	>64 µg/mL	> 64 µg/mL	> 64 µg/mL	> 64 µg/mL	> 64 µg/mL	> 64 µg/mL	> 64 µg/mL	–	–
Cn1ncc2nc(Nc3ccc4c(c3)COC4)[nH]c(=O)c21 [Compound 39, 5-((1,3-Dihydroisobenzofuran-5-yl)amino)-1-methyl-1H-pyrazolo[4,3-d]pyrimidin-7(6H)-one]	> 64 µg/mL	>64 µg/mL	> 64 µg/mL	> 64 µg/mL	> 64 µg/mL	> 64 µg/mL	> 64 µg/mL	> 64 µg/mL	–	–
Cn1nc(C#N)c2nc(NCc3ccc(Cl)c(Cl)c3)[nH]c(=O)c21 [Compound 45, 5-((3,4-dichlorobenzyl)amino)-1-methyl-7-oxo-6,7-dihydro-1H-pyrazolo[4,3-d]pyrimidine-3-carbonitrile]	> 64 µg/mL	64 µg/mL	4 µg/mL (≈ 11.5 µM)	2 µg/mL (≈ 5.73 µM)	16 µg/mL (≈ 45.8 µM)	–	4 µg/mL (≈ 11.5 µM)	–	2/2	4/4
Cn1nc(C2C=CCO2)c2nc(NCc3ccc(Cl)c(Cl)c3)[nH]c(=O)c21 (stereo not shown) [Compound 46, 5-((3,4-dichlorobenzyl)amino)-3-(2,5-dihydrofuran-2-yl)-1-methyl-1H-pyrazolo[4,3-d]pyrimidin-7(6H)-one]	> 64 µg/mL	>64 µg/mL	16 µg/mL (≈ 40.8 µM)	4 µg/mL (≈ 10.2 µM)	16 µg/mL (≈ 40.8 µM)	8 µg/mL (≈ 20.4 µM)	4 µg/mL (≈ 10.2 µM)	8 µg/mL (≈ 20.4 µM)	–	–
Cn1nc(C2CCCO2)c2nc(NCc3ccc(Cl)c(Cl)c3)[nH]c(=O)c21 (stereo not shown) [Compound 47, 5-((3,4-dichlorobenzyl)amino)-1-methyl-3-(tetrahydrofuran-2-yl)-1H-pyrazolo[4,3-d]pyrimidin-7(6H)-one]	> 64 µg/mL	>64 µg/mL	> 64 µg/mL	8 µg/mL (≈ 20.3 µM)	32 µg/mL (≈ 81.2 µM)	16 µg/mL (≈ 40.6 µM)	16 µg/mL (≈ 40.6 µM)	16 µg/mL (≈ 40.6 µM)	–	–
Cn1nc(CCO)c2nc(NCc3ccc(Cl)c(Cl)c3)[nH]c(=O)c21 [Compound 48, 5-((3,4-dichlorobenzyl)amino)-3-(2-hydroxyethyl)-1-methyl-1H-pyrazolo[4,3-d]pyrimidin-7(6H)-one]	> 64 µg/mL	>64 µg/mL	16 µg/mL (≈ 43.5 µM)	4 µg/mL (≈ 10.9 µM)	4 µg/mL (≈ 10.9 µM)	8 µg/mL (≈ 21.7 µM)	8 µg/mL (≈ 21.7 µM)	4 µg/mL (≈ 10.9 µM)	–	–

The next lines start with the values.

MIC [1]	MIC E. coli ATCC 25922 + 4 mM EDTA [1]	MIC [2]	MIC [3]	MIC [4]	MIC [5]	MIC [6]	MIC [7]	MIC E. faecium ATCC 700221 (VRE) [5]	MIC NRS 384 (MRSA) [7]	Compound
> 64 µg/mL	>64 µg/mL	> 64 µg/mL	> 64 µg/mL	> 64 µg/mL	> 64 µg/mL	> 64 µg/mL	> 64 µg/mL	–	–	COC(=O)c1nn(C)c2c(=O)[nH]c(NCc3ccc(Cl)c(Cl)c3)nc12 [Compound 40, Methyl 5-((3,4-dichlorobenzyl)amino)-1-methyl-7-oxo-6,7-dihydro-1H-pyrazolo[4,3-d]pyrimidine-3-carboxylate]
> 64 µg/mL	>64. ug/ml	> 64 µg/mL	> 64 µg/mL	> 64 µg/mL	> 64 µg/mL	> 64 µg/mL	> 64 µg/mL	–	–	Cn1nc(C(=O)O)c2nc(NCc3ccc(Cl)c(Cl)c3)[nH]c(=O)c21 [Compound 41, 5-((3,4-dichlorobenzyl)amino)-1-methyl-7-oxo-6,7-dihydro-1H-pyrazolo[4,3-d]pyrimidine-3-carboxylic acid]
> 64 µg/mL	>64 µg/mL	> 64 µg/mL	> 64 µg/mL	> 64 µg/mL	> 64 µg/mL	> 64 µg/mL	> 64 µg/mL	–	–	CNC(=O)c1nn(C)c2c(=O)[nH]c(NCc3ccc(Cl)c(Cl)c3)nc12 [Compound 42, 5-((3,4-dichlorobenzyl)amino)-N, 1-dimethyl-7-oxo-6,7-dihydro-1H-pyrazolo[4,3-d]pyrimidine-3-carboxamide]
> 64 µg/mL	>64 µg/mL	> 64 µg/mL	64 µg/mL (≈ 162 µM)	64 µg/mL (≈ 162 µM)	> 64 µg/mL	> 64 µg/mL	> 64 µg/mL	–	–	CN(C)C(=O)c1nn(C)c2c(=O)[nH]c(NCc3ccc(Cl)c(Cl)c3)nc12 [Compound 43, 5-((3,4-Dichlorobenzyl)amino)-N,N, 1-trimethyl-7-oxo-6,7-dihydro-1H-pyrazolo[4,3-d]pyrimidine-3-carboxamide]
